Experimental data reported in PubChem BioAssay AID248 (DTP/NCI, 2004).
Several values for one entry are separate records, joined by “and”; a condition that tells them apart may be missing. Equal entries are not always repeated. Inconclusive results and toxic doses are left out. Cut-off read from the data, not from the text of the source: active = T/C of 150% or more; inactive = T/C below 125%.

System: L1210 leukemia ip in BDF1 mice, survival T/C
Assay: NCI In Vivo Anticancer Drug Screen. Data for tumor model L1210 Leukemia (intraperitoneal) in B6D2F1 (BDF1) mice
Details: endpoint: mean survival time, higher = longer survival
Outline: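 Mice bearing the transplanted tumor received compound or vehicle. Survival of the treated group was divided by that of the vehicle-treated control group to give the ratio.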

[1] = dose: 100.0 mg/kg/injection, schedule: Q01DX001 (ip), vehicle: saline with Tween-80
[2] = dose: 200.0 mg/kg/injection, schedule: Q01DX001 (ip), vehicle: saline with Tween-80
[3] = dose: 50.0 mg/kg/injection, schedule: Q01DX009 (ip), vehicle: saline with Tween-80
[4] = dose: 100.0 mg/kg/injection, schedule: Q01DX009 (ip), vehicle: saline with Tween-80
[5] = dose: 200.0 mg/kg/injection, schedule: Q01DX009 (ip), vehicle: saline with Tween-80
[6] = dose: 100.0 mg/kg/injection, schedule: Q01DX001 (ip), vehicle: carboxymethylcellulose (CMC)
[7] = dose: 200.0 mg/kg/injection, schedule: Q01DX001 (ip), vehicle: carboxymethylcellulose (CMC)
[8] = dose: 400.0 mg/kg/injection, schedule: Q01DX001 (ip), vehicle: carboxymethylcellulose (CMC)
[9] = dose: 100.0 mg/kg/injection, schedule: Q01DX001 (ip), vehicle: saline
[10] = dose: 100.0 mg/kg/injection, schedule: Q01DX009 (ip), vehicle: saline
[11] = dose: 200.0 mg/kg/injection, schedule: Q01DX001 (ip), vehicle: saline
[12] = dose: 200.0 mg/kg/injection, schedule: Q01DX009 (ip), vehicle: saline
[13] = dose: 100.0 mg/kg/injection, schedule: Q04DX003 (ip), vehicle: Klucel (hydroxypropylcellulose) (HPC)
[14] = dose: 200.0 mg/kg/injection, schedule: Q04DX003 (ip), vehicle: Klucel (hydroxypropylcellulose) (HPC)
[15] = dose: 100.0 mg/kg/injection, schedule: Q04DX003 (ip), vehicle: saline
[16] = dose: 200.0 mg/kg/injection, schedule: Q04DX003 (ip), vehicle: saline
[17] = dose: 400.0 mg/kg/injection, schedule: Q04DX003 (ip), vehicle: saline

Measured: T/C

Nc1nc(=O)n(CCCOc2ccccc2)cc1-c1ccc(Cl)c(Cl)c1
inactive: dose: 100.0 mg/kg/injection, schedule: Q01DX001 (ip), vehicle: gum acacia 99 % of control | dose: 200.0 mg/kg/injection, schedule: Q01DX001 (ip), vehicle: gum acacia 94 % of control

C=CCOC(=O)CCl
inactive: dose: 55.0 mg/kg/injection, schedule: Q01DX Z (ip), vehicle: methylcellulose (MC) 87 % of control | [1] 92 % of control | [2] 98 % of control

O=[N+]([O-])c1ccc(Sc2ccc([N+](=O)[O-])cc2)cc1
inactive: [3] 92 % of control | [4] 91 % of control | [5] 89 % of control

CC(=O)C1CCC2C3CCC4=CC(=O)CCC4(C)C3(C)C(=O)CC12C (stereo unspecified)
inactive: dose: 50.0 mg/kg/injection, schedule: Q01DX001 (sc), vehicle: steriod suspending solution 102 % of control and 105 % of control | dose: 100.0 mg/kg/injection, schedule: Q01DX001 (sc), vehicle: steriod suspending solution 102 % of control and 107 % of control | dose: 200.0 mg/kg/injection, schedule: Q01DX001 (sc), vehicle: steriod suspending solution 105 % of control | dose: 400.0 mg/kg/injection, schedule: Q01DX001 (sc), vehicle: steriod suspending solution 105 % of control and 96 % of control

Clc1ccc2c(c1)N(C1CCCN(Cc3ccccc3)C1)c1ccccc1S2 (stereo unspecified)
inactive: [6] 94 % of control | [7] 94 % of control | [8] 90 % of control

CC(C)(C)N1CC1
inactive: dose: 25.0 mg/kg/injection, schedule: Q04DX002 (ip), vehicle: saline 103 % of control | dose: 50.0 mg/kg/injection, schedule: Q01DX009 (ip), vehicle: saline 101 % of control | dose: 50.0 mg/kg/injection, schedule: Q04DX002 (ip), vehicle: saline 93 % of control | [9] 106 % of control | [10] 111 % of control | dose: 100.0 mg/kg/injection, schedule: Q04DX002 (ip), vehicle: saline 93 % of control | [11] 106 % of control | [12] 103 % of control

N=C(N)c1ncn(C2CCCC2)c1N
inactive: dose: 75.0 mg/kg/injection, schedule: Q01DX001 (ip), vehicle: saline 106 % of control | dose: 150.0 mg/kg/injection, schedule: Q01DX001 (ip), vehicle: saline 105 % of control

CCCCC(C)(CCN)CCCC
inactive: dose: 4.0 mg/kg/injection, schedule: Q01DX015 (ip), vehicle: carboxymethylcellulose (CMC) 88 % of control | dose: 8.0 mg/kg/injection, schedule: Q01DX015 (ip), vehicle: carboxymethylcellulose (CMC) 96 % of control | dose: 16.0 mg/kg/injection, schedule: Q01DX015 (ip), vehicle: carboxymethylcellulose (CMC) 107 % of control | dose: 32.0 mg/kg/injection, schedule: Q01DX015 (ip), vehicle: carboxymethylcellulose (CMC) 90 % of control | dose: 48.0 mg/kg/injection, schedule: Q01DX015 (ip), vehicle: carboxymethylcellulose (CMC) 100 % of control | dose: 50.0 mg/kg/injection, schedule: Q01DX001 (ip), vehicle: carboxymethylcellulose (CMC) 111 % of control | dose: 64.0 mg/kg/injection, schedule: Q01DX015 (ip), vehicle: carboxymethylcellulose (CMC) 93 % of control | [6] 96 % of control | dose: 100.0 mg/kg/injection, schedule: Q01DX015 (ip), vehicle: carboxymethylcellulose (CMC) 98 % of control | dose: 150.0 mg/kg/injection, schedule: Q01DX015 (ip), vehicle: carboxymethylcellulose (CMC) 100 % of control | [7] 102 % of control | [8] 113 % of control

O=C(O)c1cccc(F)c1C(=O)c1ccc2ccccc2c1
inactive: dose: 75.0 mg/kg/injection, schedule: Q01DX001 (ip), vehicle: carboxymethylcellulose (CMC) 96 % of control | [13] 97 % of control | dose: 150.0 mg/kg/injection, schedule: Q01DX001 (ip), vehicle: carboxymethylcellulose (CMC) 95 % of control | [14] 105 % of control | dose: 300.0 mg/kg/injection, schedule: Q01DX001 (ip), vehicle: carboxymethylcellulose (CMC) 93 % of control

O=C(NCCCl)Nc1ccc(O)cc1
inactive: [10] 101 % of control | [13] 98 % of control | [12] 105 % of control | [14] 94 % of control | dose: 400.0 mg/kg/injection, schedule: Q01DX009 (ip), vehicle: saline 90 % of control | dose: 400.0 mg/kg/injection, schedule: Q04DX003 (ip), vehicle: Klucel (hydroxypropylcellulose) (HPC) 100 % of control

NNC(=O)c1ccccc1O
inactive: dose: 50.0 mg/kg/injection, schedule: Q01DX001 (ip), vehicle: other 105 % of control | [3] 90 % of control | dose: 100.0 mg/kg/injection, schedule: Q01DX001 (ip), vehicle: other 100 % of control | [4] 97 % of control | dose: 200.0 mg/kg/injection, schedule: Q01DX001 (ip), vehicle: other 97 % of control | [5] 102 % of control

ClC1=C(Cl)C2(Cl)CCC1(Cl)C2(Cl)Cl
inactive: [15] 101 % of control | [16] 97 % of control | [17] 108 % of control

CC(C)(Oc1ccc(Cl)cc1)C(=O)NCCCCCC(=O)O
inactive: [3] 98 % of control | [4] 98 % of control | [5] 95 % of control

CN(N=O)C(=O)NCCOC(=O)N(C)N=O
inactive: dose: 6.25 mg/kg/injection, schedule: Q01DX Z (ip), vehicle: carboxymethylcellulose (CMC) 124 % of control | dose: 12.5 mg/kg/injection, schedule: Q01DX Z (ip), vehicle: carboxymethylcellulose (CMC) 124 % of control

O=C(C#CC(=O)[O][Sn]([c]1ccccc1)([c]1ccccc1)[c]1ccccc1)[O][Sn]([c]1ccccc1)([c]1ccccc1)[c]1ccccc1
inactive: dose: 6.25 mg/kg/injection, schedule: Q01DX001 (ip), vehicle: saline 90 % of control | dose: 12.5 mg/kg/injection, schedule: Q01DX001 (ip), vehicle: saline 95 % of control | dose: 25.0 mg/kg/injection, schedule: Q01DX001 (ip), vehicle: saline 100 % of control | dose: 35.0 mg/kg/injection, schedule: Q01DX001 (ip), vehicle: Klucel (hydroxypropylcellulose) (HPC) 91 % of control

Nc1ncnc2c1ncn2C1OCC(O)C1CO (stereo unspecified)
inactive: dose: 50.0 mg/kg/injection, schedule: Q01DX001 (ip), vehicle: saline 111 % of control | [9] 109 % of control | [11] 105 % of control

Cc1ccc(Cl)cc1NC(=O)N(C)C1CCCCC1
inactive: [1] 101 % of control | [4] 94 % of control and 120 % of control | dose: 100.0 mg/kg/injection, schedule: Q04DX002 (ip), vehicle: saline with Tween-80 104 % of control and 106 % of control | [15] 97 % of control | [2] 106 % of control | [5] 96 % of control and 113 % of control | dose: 200.0 mg/kg/injection, schedule: Q04DX002 (ip), vehicle: saline with Tween-80 98 % of control and 109 % of control | [16] 111 % of control | dose: 400.0 mg/kg/injection, schedule: Q01DX001 (ip), vehicle: saline with Tween-80 98 % of control | dose: 400.0 mg/kg/injection, schedule: Q01DX009 (ip), vehicle: saline with Tween-80 100 % of control and 110 % of control | dose: 400.0 mg/kg/injection, schedule: Q04DX002 (ip), vehicle: saline with Tween-80 95 % of control and 112 % of control | [17] 90 % of control
